Measurements reported in US11377442B2, “Small molecule agonists and antagonists of NR2F6 activity” (ZANDER THERAPEUTICS, INC., priority 2016, dated 2022).
Read-outs that look alike come from different tables or passages of the source.

Key:
Type in all cases: cell-based
NR2F6 = target: T1, NR2F6 (Homo sapiens, UniProt P10588); test: NR2F6 agonist screening, Firefly signal cmpd/DMSO; details: F4
T1 construct: expressed in transfected cells; also transient transfection
T1 sequence (P10588 1-404): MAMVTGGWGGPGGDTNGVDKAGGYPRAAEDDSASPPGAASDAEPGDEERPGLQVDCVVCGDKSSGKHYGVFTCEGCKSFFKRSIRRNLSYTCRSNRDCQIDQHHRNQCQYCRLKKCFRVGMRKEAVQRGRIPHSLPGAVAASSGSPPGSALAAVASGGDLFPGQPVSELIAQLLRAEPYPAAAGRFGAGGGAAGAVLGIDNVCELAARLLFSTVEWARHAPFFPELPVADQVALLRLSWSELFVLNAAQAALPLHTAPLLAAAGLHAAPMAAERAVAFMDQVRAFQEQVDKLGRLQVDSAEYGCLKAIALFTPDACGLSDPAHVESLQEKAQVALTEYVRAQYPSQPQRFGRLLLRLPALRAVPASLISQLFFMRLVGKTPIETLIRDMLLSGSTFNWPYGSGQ

Renilla = Renilla signal in NR2F6 agonist screening, cmpd/DMSO; details: Renilla, F4
HEK293 pGL4 = test: Firefly_pGL signal, cmpd/DMSO (pGL4 control cells); details: Homo sapiens
NR2F6 LBD = target: T2, NR2F6 LBD (Homo sapiens, UniProt P10588); test: NR2F6 LBD transient transfection; details: LBD
T2 construct: expressed in transfected cells
T2 sequence (P10588 165-393 limits assumed): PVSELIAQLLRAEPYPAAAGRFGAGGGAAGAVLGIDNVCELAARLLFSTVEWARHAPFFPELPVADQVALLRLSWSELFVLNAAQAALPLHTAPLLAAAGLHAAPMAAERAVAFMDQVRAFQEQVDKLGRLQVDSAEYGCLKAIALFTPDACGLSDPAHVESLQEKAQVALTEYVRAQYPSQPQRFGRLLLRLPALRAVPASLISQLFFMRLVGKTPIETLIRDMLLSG
Method: FIGS. 27A and 27B show NR2F6 and LBD transient transfection, respectively, for Compound D28. Higher concentrations were excluded due to lower signal (tox effect). FIGS. 27C and 27D show NR2F6 and LBD transient transfection at different concentrations for different compounds. 9 compounds were tested on LBD transfected cells (40, 10, 2 and 0.5 μM, 4 replicates). FIGS. 27E and 27F show toxicity of Compound D28. 9 compounds were tested for cytotoxicity on LBD transfected cells (40, 10, 2 and 0.5 μM, 4 replicates). […] Cytotoxicity normalized to DMSO is shown in FIG. 27F (0% cytotoxicity corresponds to DMSO signal, 100%—zero signal).
FIGS. 34A and 34B show NR2F6 LBD transient transfection for Compound E21. 9 compounds were tested on LBD transfected cells (40, 10, 2 and 0.5 μM, 4 replicates). FIGS. 34C and 34D show NR2F6 and LBD transient transfection at different concentrations for different compounds. 9 compounds were tested on LBD transfected cells (40, 10, 2 and 0.5 μM, 4 replicates). […] Cytotoxicity normalized to DMSO is shown in FIG. 34D (0% cytotoxicity corresponds to DMSO signal, 100%—zero signal). All compounds were tested at 5, 10, 25 and 50 uM in duplicates. Dog PBMC (1×10^6 cells/mL) were activated by 10 ng/mL PMA+500 ng/mL ionomycin. Data were normalized to controls with (100%)/without (0%) PMA+ionomycin activation.
FIGS. 39A and 39B show NR2F6 LBD transient transfection for Compound F1. 9 compounds were tested on LBD transfected cells (40, 10, 2 and 0.5 μM, 4 replicates). FIGS. 39C and 39D show toxicity of NR2F6 LBD transient transfection. 9 compounds were tested for cytotoxicity on LBD transfected cells (40, 10, 2 and 0.5 μM, 4 replicates). Tox effect causes lower signal compared to DMSO. Cytotoxicity normalized to DMSO is shown in FIG. 39D (0% cytotoxicity corresponds to DMSO signal, 100%—zero signal).

[1] = read-out: Renilla, F4, cmpd/DMSO (mean)
[2] = 1% FBS, read-out: Renilla, F4, 1% FBS, cmpd/DMSO (mean)
[3] = 10% FBS, read-out: Renilla, F4, 10% FBS, cmpd/DMSO (mean)

- Firefly F4, cmpd/DMSO (mean) (NR2F6; 0.5 uM): 1.5
- Firefly F4, cmpd/DMSO (mean) (NR2F6; 2 uM): 1.0
- Firefly F4, cmpd/DMSO (mean) (NR2F6; 10 uM): 1.4
- Firefly F4, cmpd/DMSO (mean) (NR2F6; 40 uM): 1.2
- Firefly, F4, 1% FBS, cmpd/DMSO (mean) (NR2F6; 0.5 uM): 1.2
- Firefly, F4, 1% FBS, cmpd/DMSO (mean) (NR2F6; 2 uM): 0.9
- Firefly, F4, 1% FBS, cmpd/DMSO (mean) (NR2F6; 10 uM): 0.9
- Firefly, F4, 1% FBS, cmpd/DMSO (mean) (NR2F6; 40 uM): 1.1
- Firefly, F4, 10% FBS, cmpd/DMSO (mean) (NR2F6; 0.5 uM): 1.1
- Firefly, F4, 10% FBS, cmpd/DMSO (mean) (NR2F6; 2 uM): 1.4
- Firefly, F4, 10% FBS, cmpd/DMSO (mean) (NR2F6; 10 uM): 1.3
- Firefly, F4, 10% FBS, cmpd/DMSO (mean) (NR2F6; 40 uM): 0.8
- Firefly LBD, cmpd/DMSO (mean) (NR2F6 LBD; 0.5 uM): 0.9
- Firefly LBD, cmpd/DMSO (mean) (NR2F6 LBD; 2 uM): 1.2
- Firefly LBD, cmpd/DMSO (mean) (NR2F6 LBD; 10 uM): 1.1
- Firefly LBD, cmpd/DMSO (mean) (NR2F6 LBD; 40 uM): 1.2
Compound: CC(=O)N1CCN([C@H]2CS(=O)(=O)C[C@@H]2S(=O)(=O)c2ccc(F)c(C)c2)CC1 [Compound D116]
- fold induction at 0.5 µM (Renilla; [1]): 1
- fold induction at 2 µM (Renilla; [1]): 1.1
- fold induction at 10 µM (Renilla; [1]): 1.1
- fold induction at 40 µM (Renilla; [1]): 1.1
- fold induction at 0.5 µM (Renilla; [2]): 1
- fold induction at 2 µM (Renilla; [2]): 1.1
- fold induction at 10 µM (Renilla; [2]): 1
- fold induction at 40 µM (Renilla; [2]): 1.2
- fold induction at 0.5 µM (Renilla; [3]): 0.8
- fold induction at 2 µM (Renilla; [3]): 0.9
- fold induction at 10 µM (Renilla; [3]): 0.9
- fold induction at 40 µM (Renilla; [3]): 1.2
- fold induction at 0.5 µM (HEK293 pGL4; HEK293, 0.5 uM, pGL4, read-out: Firefly pGL4, cmpd/DMSO (mean)): 1
- fold induction at 2 µM (HEK293 pGL4; HEK293, 2 uM, pGL4, read-out: Firefly pGL4, cmpd/DMSO (mean)): 1.2
- fold induction at 10 µM (HEK293 pGL4; HEK293, 10 uM, pGL4, read-out: Firefly pGL4, cmpd/DMSO (mean)): 1.1
- fold induction at 40 µM (HEK293 pGL4; HEK293, 40 uM, pGL4, read-out: Firefly pGL4, cmpd/DMSO (mean)): 1.4
- fold induction at 0.5 µM (HEK293 pGL4; HEK293, pGL4, 1% FBS, 0.5 uM, read-out: Firefly, pGL4, 1% FBS, cmpd/DMSO (mean)): 1.6
- fold induction at 2 µM (HEK293 pGL4; HEK293, pGL4, 1% FBS, 2 uM, read-out: Firefly, pGL4, 1% FBS, cmpd/DMSO (mean)): 1
- fold induction at 10 µM (HEK293 pGL4; HEK293, pGL4, 1% FBS, 10 uM, read-out: Firefly, pGL4, 1% FBS, cmpd/DMSO (mean)): 1.7
- fold induction at 40 µM (HEK293 pGL4; HEK293, pGL4, 1% FBS, 40 uM, read-out: Firefly, pGL4, 1% FBS, cmpd/DMSO (mean)): 1.4
- fold induction at 0.5 µM (HEK293 pGL4; HEK293, pGL4, 10% FBS, 0.5 uM, read-out: Firefly, pGL4, 10% FBS, cmpd/DMSO (mean)): 1.1
- fold induction at 2 µM (HEK293 pGL4; HEK293, pGL4, 10% FBS, 2 uM, read-out: Firefly, pGL4, 10% FBS, cmpd/DMSO (mean)): 1.1
- fold induction at 10 µM (HEK293 pGL4; HEK293, pGL4, 10% FBS, 10 uM, read-out: Firefly, pGL4, 10% FBS, cmpd/DMSO (mean)): 1.4
- fold induction at 40 µM (HEK293 pGL4; HEK293, pGL4, 10% FBS, 40 uM, read-out: Firefly, pGL4, 10% FBS, cmpd/DMSO (mean)): 1.5
